Laboratory results taken from the supplement of paper PMC4628005.

Tests used:
Conditions in all cases: drug exposure time: 96 h
Sirolimus = compound: CO[C@H]1C[C@@H]2CC[C@@H](C)[C@@](O)(O2)C(=O)C(=O)N2CCCC[C@H]2C(=O)O[C@H]([C@H](C)C[C@@H]2CC[C@@H](O)[C@H](OC)C2)CC(=O)[C@H](C)/C=C(\C)[C@@H](O)[C@@H](OC)C(=O)[C@H](C)C[C@H](C)/C=C/C=C/C=C/1C [Sirolimus]
Procedure: (§1)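 Same SRB 96 h IC50 screen on breast cancer cell lines (RPMI 1640 + 10% FBS, collagen I-coated 96-well plates, triplicates, 12 dilutions), for drugs with a different dose range: Bortezomib up to 2e-5 M; Sirolimus and 17-AAG up to 2e-6 M. Sirolimus values at the 2e-6 M top dose are censored.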

17-AAG = compound: C=CCNC1=C2C[C@@H](C)C[C@H](OC)[C@H](O)[C@@H](C)/C=C(\C)[C@H](OC(N)=O)[C@@H](OC)/C=C\C=C(/C)C(=O)NC(=CC1=O)C2=O [17-AAG]
Procedure: as §1

Bortezomib = compound: CC(C)C[C@H](NC(=O)[C@H](Cc1ccccc1)NC(=O)c1cnccn1)B(O)O [Bortezomib]
Procedure: as §1

Docetaxel = compound: CC(=O)O[C@@]12CO[C@@H]1C[C@H](O)[C@@]1(C)C(=O)[C@H](O)C3=C(C)[C@@H](OC(=O)[C@H](O)[C@@H](NC(=O)OC(C)(C)C)c4ccccc4)C[C@@](O)([C@@H](OC(=O)c4ccccc4)[C@H]21)C3(C)C [Docetaxel]
Procedure: (§2)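 Breast cancer cell lines were grown in RPMI 1640 with 10% FBS on collagen I-coated 96-well plates and treated for 96 h (from 24 h after seeding) with 12 dilutions per drug, in triplicate. Growth was read by sulforhodamine B total-protein staining (absorbance 570 nm) relative to diluent control, and IC50 was calculated. The top dose was 1e-5 M for most drugs; Bortezomib went to 2e-5 M and Sirolimus and 17-AAG to 2e-6 M[…].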

Tamoxifen = compound: CC/C(=C(\c1ccccc1)c1ccc(OCCN(C)C)cc1)c1ccccc1 [Tamoxifen]
Procedure: as §2

Sorafenib = compound: CNC(=O)c1cc(Oc2ccc(NC(=O)Nc3ccc(Cl)c(C(F)(F)F)c3)cc2)ccn1 [Sorafenib]
Procedure: as §2

Paclitaxel = compound: CC(=O)O[C@H]1C(=O)[C@@]2(C)[C@H]([C@H](OC(=O)c3ccccc3)[C@]3(O)C[C@H](OC(=O)[C@H](O)[C@@H](NC(=O)c4ccccc4)c4ccccc4)C(C)=C1C3(C)C)[C@]1(OC(C)=O)CO[C@@H]1C[C@@H]2O [Paclitaxel]
Procedure: as §2

Panobinostat = compound: Cc1[nH]c2ccccc2c1CCNCc1ccc(/C=C/C(=O)NO)cc1 [Panobinostat]
Procedure: as §2

Brivanib = compound: Cc1cc2c(F)c(Oc3ncnn4cc(OC[C@@H](C)O)c(C)c34)ccc2[nH]1 [Brivanib]
Procedure: as §2

Vandetanib = compound: COc1cc2/c(=N/c3ccc(Br)cc3F)nc[nH]c2cc1OCC1CCN(C)CC1 [Vandetanib]
Procedure: as §2

Gefitinib = compound: COc1cc2ncnc(Nc3ccc(F)c(Cl)c3)c2cc1OCCCN1CCOCC1 [Gefitinib]
Procedure: as §2

Cisplatin = compound: N.N.[Cl][Pt][Cl] [Cisplatin]
Procedure: as §2

Nutlin-3 = compound: COc1ccc(C2=N[C@@H](c3ccc(Cl)cc3)[C@@H](c3ccc(Cl)cc3)N2C(=O)N2CCNC(=O)C2)c(OC(C)C)c1 [Nutlin-3]
Procedure: as §2

Doxorubicin = compound: COc1cccc2c1C(=O)c1c(O)c3c(c(O)c1C2=O)C[C@@](O)(C(=O)CO)C[C@@H]3O[C@H]1C[C@H](N)[C@H](O)[C@H](C)O1 [Doxorubicin]
Procedure: as §2

Methotrexate = compound: CN(Cc1cnc2nc(N)nc(N)c2n1)c1ccc(C(=O)N[C@@H](CCC(=O)O)C(=O)O)cc1 [Methotrexate]
Procedure: as §2

Dasatinib = compound: Cc1nc(Nc2ncc(C(=O)Nc3c(C)cccc3Cl)s2)cc(N2CCN(CCO)CC2)n1 [Dasatinib]
Procedure: as §2

Tipifarnib = compound: Cn1cncc1[C@@](N)(c1ccc(Cl)cc1)c1ccc2c(c1)c(-c1cccc(Cl)c1)cc(=O)n2C [Tipifarnib]
Procedure: as §2

Vorinostat = compound: O=C(CCCCCCC(=O)Nc1ccccc1)NO [Vorinostat]
Procedure: as §2

Mitoxantrone = compound: O=C1c2c(O)ccc(O)c2C(=O)c2c(NCCNCCO)ccc(NCCNCCO)c21 [Mitoxantrone]
Procedure: as §2

MI-219 = compound: CC(C)(C)C[C@H]1N[C@@H](C(=O)NCC[C@H](O)CO)[C@H](c2cccc(Cl)c2)[C@@]12C(=O)Nc1cc(Cl)c(F)cc12 [MI-219]
Procedure: as §2

5-Fluorouracil = compound: O=c1[nH]cc(F)c(=O)[nH]1 [5-Fluorouracil]
Procedure: as §2

Lapatinib = compound: CS(=O)(=O)CCNCc1ccc(-c2ccc3ncnc(Nc4ccc(OCc5cccc(F)c5)c(Cl)c4)c3c2)o1 [Lapatinib]
Procedure: as §2

Azacitidine = compound: Nc1ncn([C@@H]2O[C@H](CO)[C@@H](O)[C@H]2O)c(=O)n1 [Azacitidine]
Procedure: as §2

Serdemetan = compound: c1ccc2c(CCNc3ccc(Nc4ccncc4)cc3)c[nH]c2c1 [Serdemetan]
Procedure: as §2

Erlotinib = compound: C#Cc1cccc(Nc2ncnc3cc(OCCOC)c(OCCOC)cc23)c1 [Erlotinib]
Procedure: as §2

Sunitinib = compound: CCN(CC)CCNC(=O)c1c(C)[nH]c(/C=C2\C(=O)Nc3ccc(F)cc32)c1C [Sunitinib]
Procedure: as §2

ARQ197 = compound: O=C1NC(=O)[C@@H](c2cn3c4c(cccc24)CCC3)[C@@H]1c1c[nH]c2ccccc12 [ARQ197]
Procedure: as §2

Quisinostat = compound: Cn1cc(CNCC2CCN(c3ncc(C(=O)NO)cn3)CC2)c2ccccc21 [Quisinostat]
Procedure: as §2

Belinostat = compound: O=C(/C=C/c1cccc(S(=O)(=O)Nc2ccccc2)c1)NO [Belinostat]
Procedure: as §2

Decitabine = compound: Nc1ncn([C@H]2C[C@H](O)[C@@H](CO)O2)c(=O)n1 [Decitabine]
Procedure: as §2

Test System: HCC 202
- IC50 (SRB growth assay) (Sirolimus): 5.17 nM
- IC50 (SRB growth assay) (17-AAG): 49.5 nM
- IC50 (SRB growth assay) (Bortezomib): 1.51 nM
- IC50 (SRB growth assay) (Docetaxel): 1.72 nM
- IC50 (SRB growth assay) (Tamoxifen): > 10000 nM
- IC50 (SRB growth assay) (Sorafenib): 5170 nM
- IC50 (SRB growth assay) (Paclitaxel): 4.3 nM
- IC50 (SRB growth assay) (Panobinostat): 16.7 nM
- IC50 (SRB growth assay) (Brivanib): > 10000 nM
- IC50 (SRB growth assay) (Vandetanib): 3780 nM
- IC50 (SRB growth assay) (Gefitinib): 8050 nM
- IC50 (SRB growth assay) (Cisplatin): > 10000 nM
- IC50 (SRB growth assay) (Nutlin-3): > 10000 nM
- IC50 (SRB growth assay) (Doxorubicin): 76.5 nM
- IC50 (SRB growth assay) (Methotrexate): 47.6 nM
- IC50 (SRB growth assay) (Dasatinib): 1200 nM
- IC50 (SRB growth assay) (Tipifarnib): > 10000 nM
- IC50 (SRB growth assay) (Vorinostat): 1130 nM
- IC50 (SRB growth assay) (Mitoxantrone): 213 nM
- IC50 (SRB growth assay) (MI-219): > 10000 nM
- IC50 (SRB growth assay) (5-Fluorouracil): 7370 nM
- IC50 (SRB growth assay) (Lapatinib): 199 nM
- IC50 (SRB growth assay) (Azacitidine): 4630 nM
- IC50 (SRB growth assay) (Serdemetan): 5010 nM
- IC50 (SRB growth assay) (Erlotinib): 6060 nM
- IC50 (SRB growth assay) (Sunitinib): > 10000 nM
- IC50 (SRB growth assay) (ARQ197): 427 nM
- IC50 (SRB growth assay) (Quisinostat): 6.54 nM
- IC50 (SRB growth assay) (Belinostat): 487 nM
- IC50 (SRB growth assay) (Decitabine): > 10000 nM

Test System: HCC 1143
- IC50 (SRB growth assay) (Sirolimus): 0.62 nM
- IC50 (SRB growth assay) (17-AAG): 56.6 nM
- IC50 (SRB growth assay) (Bortezomib): 4.31 nM
- IC50 (SRB growth assay) (Docetaxel): 0.306 nM
- IC50 (SRB growth assay) (Tamoxifen): 4990 nM
- IC50 (SRB growth assay) (Sorafenib): 6060 nM
- IC50 (SRB growth assay) (Paclitaxel): 1.52 nM
- IC50 (SRB growth assay) (Panobinostat): 11 nM
- IC50 (SRB growth assay) (Brivanib): > 10000 nM
- IC50 (SRB growth assay) (Vandetanib): 1830 nM
- IC50 (SRB growth assay) (Gefitinib): 1040 nM
- IC50 (SRB growth assay) (Cisplatin): > 10000 nM
- IC50 (SRB growth assay) (Nutlin-3): > 10000 nM
- IC50 (SRB growth assay) (Doxorubicin): 16.5 nM
- IC50 (SRB growth assay) (Methotrexate): 24.7 nM
- IC50 (SRB growth assay) (Dasatinib): 5110 nM
- IC50 (SRB growth assay) (Tipifarnib): 749 nM
- IC50 (SRB growth assay) (Vorinostat): 857 nM
- IC50 (SRB growth assay) (Mitoxantrone): 3.93 nM
- IC50 (SRB growth assay) (MI-219): > 10000 nM
- IC50 (SRB growth assay) (5-Fluorouracil): 1980 nM
- IC50 (SRB growth assay) (Lapatinib): 2250 nM
- IC50 (SRB growth assay) (Azacitidine): 2070 nM
- IC50 (SRB growth assay) (Serdemetan): 921 nM
- IC50 (SRB growth assay) (Erlotinib): 1080 nM
- IC50 (SRB growth assay) (Sunitinib): 4730 nM
- IC50 (SRB growth assay) (ARQ197): 481 nM
- IC50 (SRB growth assay) (Quisinostat): 4.84 nM
- IC50 (SRB growth assay) (Belinostat): 350 nM
- IC50 (SRB growth assay) (Decitabine): 148 nM
